Measured values: PubChem BioAssay (NCI)
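The compound was tested at five concentrations on cells cultured in 96-well plates, with a 48-hour exposure period. TGI: total growth inhibition.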

What was measured:
Assay in all cases: growth of human tumour cells (NCI), 48 h
MALME-3M melanoma = test system: MALME-3M melanoma
UO-31 renal = test system: UO-31 renal
SN12C renal = test system: SN12C renal
SF-268 CNS = test system: SF-268 CNS
OVCAR-8 ovarian = test system: OVCAR-8 ovarian
U251 CNS = test system: U251 CNS
HS 578T breast = test system: HS 578T breast
OVCAR-3 ovarian = test system: OVCAR-3 ovarian
CAKI-1 renal = test system: CAKI-1 renal
A549 NSCLC = test system: A549 NSCLC
COLO 205 colon = test system: COLO 205 colon
PC-3 prostate = test system: PC-3 prostate
SK-MEL-28 melanoma = test system: SK-MEL-28 melanoma
NCI-H226 lung = test system: NCI-H226 lung
MOLT-4 leukemia = test system: MOLT-4 leukemia
NCI-H460 lung = test system: NCI-H460 lung
K-562 leukemia = test system: K-562 leukemia
786-0 renal = test system: 786-0 renal
MDA-N = test system: MDA-N
SNB-19 CNS = test system: SNB-19 CNS
HOP-62 NSCLC = test system: HOP-62 NSCLC
T-47D breast = test system: T-47D breast
M14 melanoma = test system: M14 melanoma
TK-10 renal = test system: TK-10 renal
SK-OV-3 ovarian = test system: SK-OV-3 ovarian
EKVX NSCLC = test system: EKVX NSCLC
LOX IMVI melanoma = test system: LOX IMVI melanoma
DU-145 prostate = test system: DU-145 prostate
SK-MEL-5 melanoma = test system: SK-MEL-5 melanoma
SR leukemia = test system: SR leukemia
HCT-116 colon = test system: HCT-116 colon
SNB-75 CNS = test system: SNB-75 CNS
SF-295 CNS = test system: SF-295 CNS
UACC-257 melanoma = test system: UACC-257 melanoma
UACC-62 melanoma = test system: UACC-62 melanoma
MCF7 breast = test system: MCF7 breast
ACHN renal = test system: ACHN renal
BT-549 breast = test system: BT-549 breast
MDA-MB-231 breast = test system: MDA-MB-231 breast
HCC-2998 colon = test system: HCC-2998 colon
OVCAR-4 ovarian = test system: OVCAR-4 ovarian
SK-MEL-2 melanoma = test system: SK-MEL-2 melanoma
KM12 colon = test system: KM12 colon
RPMI-8226 leukemia = test system: RPMI-8226 leukemia
HT29 colon = test system: HT29 colon
MDA-MB-435 = test system: MDA-MB-435
OVCAR-5 ovarian = test system: OVCAR-5 ovarian
NCI-H23 lung = test system: NCI-H23 lung
SF-539 CNS = test system: SF-539 CNS
NCI/ADR-RES ovarian = test system: NCI/ADR-RES ovarian
IGROV1 ovarian = test system: IGROV1 ovarian
SW-620 colon = test system: SW-620 colon
HCT-15 colon = test system: HCT-15 colon
RXF 393 renal = test system: RXF 393 renal
CCRF-CEM leukemia = test system: CCRF-CEM leukemia
HOP-92 NSCLC = test system: HOP-92 NSCLC
HL-60(TB) leukemia = test system: HL-60(TB) leukemia
NCI-H522 lung = test system: NCI-H522 lung

Measured: TGI

C[n+]1c2ccccc2c(C(=O)Nc2ccc(S(=O)(=O)Nc3ncccn3)cc2)c2ccccc21
not listed: RXF 393 renal | CCRF-CEM leukemia | HOP-92 NSCLC | HL-60(TB) leukemia | NCI-H522 lung
> 100 µM: all other assays above

NC(Cc1ccccc1CP(=O)(O)O)C(=O)O (configuration not stated)
not listed: MALME-3M melanoma | NCI-H226 lung | 786-0 renal | HOP-62 NSCLC
> 100 µM: all other assays above
